Earlier results in patent US20190254579A1, “INTEGRATED DEVICES TO CONTINUOUSLY MEASURE BOUND AND UNBOUND ANALYTE FRACTIONS IN BIOFLUIDS” (Eccrine Systems, Inc., priority 2015, published 2019).
In brackets after ≈: the same amount, converted by molar mass. Like-named read-outs stand apart in the source and are kept apart here.

What was measured:
[1] = water/octanol

SMILES	Solubility in Water (stated in words)	logP [1]	Solubility in Water [µg/mL]
CCCCCCCC/C=C\CCCCCCCC(=O)O [Oleic Acid]	–	7.64	–
CCCCC/C=C\C/C=C\CCCCCCCC(=O)OC(CO)CO [2-Linoleoyl Glycerol]	–	5.6	–
CCCCC/C=C\C/C=C\C/C=C\C/C=C\CCCC(=O)O [Arachidonic Acid]	Negligible	7	–

Next, values leading:

Solubility in Water (stated in words)	logP [1]	Solubility in Water [µg/mL]	SMILES
Low	6.4	–	CCCCCC/C=C\CCCCCCCC(=O)O [Palmitoleic Acid]
–	5.7	3460 (≈ 11.6 mM)	CCCCCC[C@@H](O)C/C=C\CCCCCCCC(=O)O [Ricinoleic Acid]
–	5.1	–	CCCC/C=C\CCCCCCCC(=O)O [Myristoleic Acid]
–	8.3	–	CC(C)CCCC(C)CCCC(C)CCCC(C)CC(=O)O (stereo not shown) [Phytanic Acid]
